# Assay results reported in the supplement of paper PMC11208160.
# Experiment: recombinant UMI read abundance after kanamycin selection (control-corrected) (log10(CPM+1)); higher = more efficient recombination; extreme values may be limits of the assay; sequences stand for … in AGTGCAGAGAAAATCGGCCAGTTTTCTCTGCCTGCAGTCCGCATGCCGTGGGACCCCTTGGGTTCTAACCTGTTGCCTAGATTTATGCAGCGGACTGCCTTTCTCCCAAAGTGATAAACCGG…AGGTTGGTTTCACT; site = the 11-nt donor
# How it was run: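 In a pooled Escherichia coli screen for the IS621 bridge recombinase, donor and donor-binding-loop pairs were each placed with a 12-nt UMI on a plasmid bearing a promoterless kanamycin gene. This library was co-electroporated with a target plasmid encoding a fixed target and T7-inducible recombinase, and cells were plated either on IPTG (0.07 mM) plus kanamycin or without selection, in two replicates each. Recombinant UMIs were PCR-amplified across the donor–target junction and sequenced, and counts were converted to CPM, averaged over replicates, scaled by control-derived factors and reported as log10(CPM+1).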
row,Sequence,recombinant UMI read abundance (log10)
1,AGGAAGCCATGGACCGGTTTTCCCGGTAATCCGTATTTGCA (site AGGAAGCCTTG),0
2,AGGAAGCCATGGACCGGTTTTCCCGGTAATCCGTATTTGCA (site AGGAAGGCTTG),0
3,AGGAAGCCATGGACCGGTTTTCCCGGTAATCCGTATTTGCA (site AGGAAGTCTTG),0
4,AGGAAGTCATGGACCGGTTTTCCCGGTAATCCGTATTTGCG (site AGGAAGACTTG),0
5,AGGAAGTCATGGACCGGTTTTCCCGGTAATCCGTATTTGCG (site AGGAAGTCTCG),3.16
6,AGGAAGTCATGGACCGGTTTTCCCGGTAATCCGTATTTGTA (site AGGAAGACTTG),0
7,AGGAAGTCATGGACCGGTTTTCCCGGTAATCCGTATTTGTA (site AGGAAGTCTTA),2.97
8,AGGAATACATGGACCGGTTTTCCCGGTAATCCGTATTTGAC (site AGGAATACTGT),1.74
9,AGGAATACATGGACCGGTTTTCCCGGTAATCCGTATTTGAC (site AGGACTACTGT),0.624
10,AGGAATACATGGACCGGTTTTCCCGGTAATCCGTATTTGAC (site AGGAGTACTGT),0
11,AGGAATACATGGACCGGTTTTCCCGGTAATCCGTATTTGAC (site AGGATTACTGT),0
12,AGGAATACATGGACCGGTTTTCCCGGTAATCCGTATTTGGC (site AGGAATACTGC),2.59
13,AGGAATCCATGGACCGGTTTTCCCGGTAATCCGTATTTGCT (site AGGAATCCTAG),0
14,AGGAATCCATGGACCGGTTTTCCCGGTAATCCGTATTTGCT (site CGGAATCCTAA),0.0057
15,AGGAATCCATGGACCGGTTTTCCCGGTAATCCGTATTTGTT (site AGGAATCCTAA),0.74
16,AGGAATCCATGGACCGGTTTTCCCGGTAATCCGTATTTGTT (site CGGAATCCTAA),0.0029
17,AGGAATCCATGGACCGGTTTTCCCGGTAATCCGTATTTGTT (site GGGAATCCTAA),0
18,AGGAATCCATGGACCGGTTTTCCCGGTAATCCGTATTTGTT (site TGGAATCCTAA),0
19,AGGACCACATGGACCGGTTTTCCCGGTAATCCGTATTTGAC (site AGGACAACTGT),0.0127
20,AGGACCACATGGACCGGTTTTCCCGGTAATCCGTATTTGAC (site AGGACCACTGT),2.79
21,AGGACCACATGGACCGGTTTTCCCGGTAATCCGTATTTGAC (site AGGACGACTGT),0
22,AGGACCACATGGACCGGTTTTCCCGGTAATCCGTATTTGAC (site AGGACTACTGT),0
23,AGGATCCCATGGACCGGTTTTCCCGGTAATCCGTATTTGTG (site AGGATCCCTCA),0.753
24,AGGATCCCATGGACCGGTTTTCCCGGTAATCCGTATTTGTG (site AGGCTCCCTCA),0.00372
25,AGGATCCCATGGACCGGTTTTCCCGGTAATCCGTATTTGTG (site AGGGTCCCTCA),0.00264

row,Sequence,recombinant UMI read abundance (log10)
1,AGGATCCCATGGACCGGTTTTCCCGGTAATCCGTATTTGTG (site AGGTTCCCTCA),0.051
2,AGGATGACATGGACCGGTTTTCCCGGTAATCCGTATTTGCA (site AGGAAGACTTG),2.34
3,AGGATGACATGGACCGGTTTTCCCGGTAATCCGTATTTGCA (site AGGACGACTTG),1.16
4,AGGATGACATGGACCGGTTTTCCCGGTAATCCGTATTTGCA (site AGGAGGACTTG),1.19
5,AGGATGACATGGACCGGTTTTCCCGGTAATCCGTATTTGCA (site AGGATGACTTG),2.76
6,AGGATGCCATGGACCGGTTTTCCCGGTAATCCGTATTTGCT (site AGGATGCCTAG),0.721
7,AGGATTACATGGACCGGTTTTCCCGGTAATCCGTATTTGAC (site AGGAATACTGT),0
8,AGGATTACATGGACCGGTTTTCCCGGTAATCCGTATTTGAC (site AGGACTACTGT),0.662
9,AGGATTACATGGACCGGTTTTCCCGGTAATCCGTATTTGAC (site AGGAGTACTGT),0
10,AGGATTACATGGACCGGTTTTCCCGGTAATCCGTATTTGAC (site AGGATTACTGT),1.4
11,AGGCAGACATGGACCGGTTTTCCCGGTAATCCGTATTTGGA (site AGGAAGACTTG),0
12,AGGCAGACATGGACCGGTTTTCCCGGTAATCCGTATTTGGA (site AGGCAGACTTC),1.21
13,AGGCGCGCATGGACCGGTTTTCCCGGTAATCCGTATTTGGA (site AGGCGCGCTTC),0.849
14,AGGCTGTCATGGACCGGTTTTCCCGGTAATCCGTATTTGTT (site AGGCTGTCTAA),1.64
15,AGGGACACATGGACCGGTTTTCCCGGTAATCCGTATTTGGC (site AGGGACACTGC),2.93
16,AGGGAGTCATGGACCGGTTTTCCCGGTAATCCGTATTTGCA (site AGGAAGACTTG),0.426
17,AGGGAGTCATGGACCGGTTTTCCCGGTAATCCGTATTTGCA (site AGGGAGTCTTG),2.79
18,AGGGAGTCATGGACCGGTTTTCCCGGTAATCCGTATTTGCC (site AGGGAGTCTGG),2.15
19,AGGGAGTCATGGACCGGTTTTCCCGGTAATCCGTATTTGCC (site CGGGAGTCTGG),0.995
20,AGGGAGTCATGGACCGGTTTTCCCGGTAATCCGTATTTGCC (site GGGGAGTCTGG),0
21,AGGGAGTCATGGACCGGTTTTCCCGGTAATCCGTATTTGCC (site TGGGAGTCTGG),0.994
22,AGGGCACCATGGACCGGTTTTCCCGGTAATCCGTATTTGCA (site AGGGCACCTTG),0.655
23,AGGGCACCATGGACCGGTTTTCCCGGTAATCCGTATTTGCA (site CGGGCACCTTG),0
24,AGGGCACCATGGACCGGTTTTCCCGGTAATCCGTATTTGCA (site GGGGCACCTTG),0
25,AGGGCACCATGGACCGGTTTTCCCGGTAATCCGTATTTGCA (site TGGGCACCTTG),0

row,Sequence,recombinant UMI read abundance (log10)
1,AGGGCCTCATGGACCGGTTTTCCCGGTAATCCGTATTTGCT (site AGGGCCTCTAG),2.95
2,AGGGGCGCATGGACCGGTTTTCCCGGTAATCCGTATTTGCC (site AGGGGCGCTGG),3.25
3,AGGGGTCCATGGACCGGTTTTCCCGGTAATCCGTATTTGCT (site AGGGGTCCTAG),0.704
4,AGGGTCACATGGACCGGTTTTCCCGGTAATCCGTATTTGAG (site AGGGTCACTCT),1.39
5,AGGGTCCCATGGACCGGTTTTCCCGGTAATCCGTATTTGTG (site AGGATCCCTCA),0.239
6,AGGGTCCCATGGACCGGTTTTCCCGGTAATCCGTATTTGTG (site AGGCTCCCTCA),0.0118
7,AGGGTCCCATGGACCGGTTTTCCCGGTAATCCGTATTTGTG (site AGGGTCCCTCA),0.304
8,AGGGTCCCATGGACCGGTTTTCCCGGTAATCCGTATTTGTG (site AGGTTCCCTCA),0.0182
9,AGGGTGCCATGGACCGGTTTTCCCGGTAATCCGTATTTGGG (site AGGGTGCCTCC),0.0268
10,AGGGTTCCATGGACCGGTTTTCCCGGTAATCCGTATTTGGT (site AGGGTTCCTAC),0.793
11,AGGGTTTCATGGACCGGTTTTCCCGGTAATCCGTATTTGAA (site AGGGTTTCTTT),2.46
12,AGGTACTCATGGACCGGTTTTCCCGGTAATCCGTATTTGAC (site AGGTACTCTGT),3.57
13,AGGTAGACATGGACCGGTTTTCCCGGTAATCCGTATTTGAA (site AGGAAGACTTG),0
14,AGGTAGACATGGACCGGTTTTCCCGGTAATCCGTATTTGAA (site AGGTAGACTTT),1.89
15,AGGTCAGCATGGACCGGTTTTCCCGGTAATCCGTATTTGGG (site AGATCAGCTCC),0.0289
16,AGGTCAGCATGGACCGGTTTTCCCGGTAATCCGTATTTGGG (site AGCTCAGCTCC),0.0149
17,AGGTCAGCATGGACCGGTTTTCCCGGTAATCCGTATTTGGG (site AGGTCAGCTCC),0.00675
18,AGGTCAGCATGGACCGGTTTTCCCGGTAATCCGTATTTGGG (site AGTTCAGCTCC),0.0281
19,AGGTCATCATGGACCGGTTTTCCCGGTAATCCGTATTTGCT (site AGGTCATCTAG),1.48
20,AGGTCATCATGGACCGGTTTTCCCGGTAATCCGTATTTGCT (site CGATCATCTAG),0
21,AGGTCGGCATGGACCGGTTTTCCCGGTAATCCGTATTTGGC (site AGGTCGGCTGC),2.13
22,AGGTTCACATGGACCGGTTTTCCCGGTAATCCGTATTTGTG (site AGGTTCACTCA),0.0184
23,AGGTTCACATGGACCGGTTTTCCCGGTAATCCGTATTTGTG (site AGGTTCCCTCA),0
24,AGGTTCACATGGACCGGTTTTCCCGGTAATCCGTATTTGTG (site AGGTTCGCTCA),0.00639
25,AGGTTCACATGGACCGGTTTTCCCGGTAATCCGTATTTGTG (site AGGTTCTCTCA),0.00699
